One data set deals with human tumor cell lines. To be noted: cited from earlier work.
Data set [1] deals with OATP1B1-expressing HeLa and RKO cells. Type of data set: cell-based.
The subject of data set [2] is type 1 protein phosphatases. To be noted: cited from earlier work.
Data set [3] concerns OATP1B1-expressing HeLa and RKO cells. To be noted: cited from earlier work.
Data set [4] has as its system OATP1B3-expressing HeLa and RKO cells. The note with it: cited from earlier work.

pIC50: −log10 of the molar value. Starred links: 1 amine or outer side, 2 acyl side, 3 side chain; linkers in the order of their positions; H or OH if unused. Positions of bridges follow the written chain, without caps; N, C: chain ends. Non-standard residues stand in square brackets, D forms with d. Residues, ends and D or L forms follow the SMILES beside them. *: point of attachment. Adda = CO[C@@H](Cc1ccccc1)[C@@H](C)/C=C(C)/C=C/[C@H](N[*:1])[C@H](C)C(=O)[*:2]; dAsp(3S-Me) = C[C@H](C(=O)[*:3])[C@@H](N[*:1])C(=O)[*:2]; Dolaproine = CO[C@@H]([C@@H]1CCCN1)[C@@H](C)C(=O)O; Dil = CC[C@H](C)[C@H](NC)[C@@H](CC(=O)O)OC; d(γGlu) = O=C(O)[C@@H](CCC(=O)[*:2])N[*:1]; X2 = C[C@@H](N*)[C@@H](O)c1ccccc1; NMeV = CN[C@H](C(=O)O)C(C)C; NMeDha = C=C(NC)C(=O)O Where only a bound is given, the exact number is not on record here.

For the compound `CC[C@H](C)[C@@H]([C@@H](CC(=O)N1CCC[C@H]1[C@H](OC)[C@@H](C)C(=O)N[C@H](C)[C@@H](O)c1ccccc1)OC)N(C)C(=O)[C@@H](NC(=O)[C@@H](NC)C(C)C)C(C)C` [Monomethyl auristatin E] (H-[NMeV]V[Dil][Dolaproine]-X2), the cytotoxic potency in the data set with human tumor cell lines is 3.9 to 10.3 nM.

For `C=C1C(=O)N[C@H](C)C(=O)N[C@@H](CC(C)C)C(=O)N[C@@H](C(=O)O)[C@H](C)C(=O)N[C@@H](CCCNC(=N)N)C(=O)N[C@@H](/C=C/C(C)=C/[C@H](C)[C@H](Cc2ccccc2)OC)[C@H](C)C(=O)N[C@@H](C(=O)O)CCC(=O)N1C` [LR, microcystin-LR] (R[Adda][d(γGlu)][NMeDha][dA]L[dAsp(3S-Me)]-OH; lactam N-7), the “Ratio 1B1 to 1B3” value in data set [1] is on record as 0.2. For the same compound, the negative-log IC50 (pIC50) was 10.52 in data set [2], 9.00 in data set [3] and 8.29 in data set [4].

For the compound `C/C=C1/C(=O)N[C@@H](C(=O)O)[C@H](C)C(=O)N[C@@H](CCCNC(=N)N)C(=O)N[C@@H](/C=C/C(C)=C/[C@H](C)[C@H](Cc2ccccc2)OC)[C@H](C)C(=O)N[C@@H](C(=O)O)CCC(=O)N1C` [NOD, Nodularin], in data set [1], the “Ratio 1B1 to 1B3” value was under 0.1. For the same compound, the pIC50 in data set [3] is 8.08; in data set [4] it was under 7.00.

(Values after patent US11124818B2 (priority 2017, dated 2021).)
